This is an account of results in patent US6916970B2, “Transgenic plants comprising antifungal polypeptides from alfalfa and methods for controlling plant pathogenic fungi” (Monsanto Technology, LLC, priority 1996, dated 2005).

The subject of one assay is Fusarium culmorum. As to the kind of experiment: Inhibition of fungal hyphal growth (microscopic hyphal length assay). The format is cell-based. Conditions: F. culmorum. The method, then:
(§1) The antifungal activity of AlfAFP1 (SEQ ID NO:2) is expressed as the concentration in μg/ml required to cause 50% inhibition of fungal hyphal growth (IC50). Percent fungal hyphal growth inhibition is defined as […] of the average hyphae length in the test sample culture divided by the average hyphae length in the control culture in which buffer is added in place of the polypeptide sample.
(§2) The antifungal activity of AlfAFP1 was determined by measuring the inhibition of fungal hyphal length of a number of different fungi in the presence of this polypeptide under an inverted microscope. Fungal spores (2×10^4 spores/ml) were allowed to germinate for 5 to 15 hours, depending on the fungus used in the test, in 50 μl of double strength testing medium. […] For studies on the antagonistic effect of cations, CaCl2 and KCl were added to final concentrations of 1 mM and 50 mM, respectively. This salt-supplemented medium is referred to as “high salt medium,” and the original medium is referred to as “low salt medium.” After spore germination, 50 μl of a filter-sterilized solution of polypeptide in distilled water were added to the testing well containing the germinated spores, and the mixture was incubated for 15 to 24 hours at 24° C. AlfAFP1 was tested in a concentration range from 0 to 80 μg/ml to determine IC50 values. Polypeptide concentrations were determined using the BCA protein assay kit obtained from Pierce (Rockford, Ill.).

The test system of assay [1] is Verticillium dahliae. The description is as above. The class given is cell-based. The note with it: V. dahliae. The method, then: as §1, §2
In assay [2] the test system is Verticillium dahliae. Put plainly: Verticillium wilt disease test on transgenic potato plants expressing AlfAFP1. The format is in vivo, potato plants (Solanum tuberosum var. Russet Burbank). The method, then: Conidia and mycelia of a 2-3 week old culture of virulent Verticillium dahliae were used to inoculate a PDA (potatoes, 200 g/l; Bacto dextrose, 20 g/l; and Bacto agar, 15 g/l) Petri plate. This culture was allowed to grow at 22° C. for 4-5 days. Conidia were then harvested by washing the culture plate with sterile distilled water and filtering the liquid through two layers of cheesecloth. The conidial spore concentration was determined using a hemacytometer, and adjusted to 1×10^6 conidia/ml with sterile distilled water.
Transgenic and non-transgenic potato plants were grown from stem cuttings under sterile conditions as described above in plastic cups containing 50 mls of PM-agar medium. When plants were about 1-2 inches tall, they were removed from the medium and their roots were dipped in the spore suspension (Joaquim et al., 1991). The inoculated plants were then transplanted into 6-inch pots containing Metro-Mix 350 soil. After transplanting, each plant received an additional 5 mls of the spore suspension (1×10^6 condida/ml) on the soil surface around the base of the stem. The pots were placed in a growth chamber under the following conditions: temperature at 20° C., light intensity at […], 12 hr day/12 hr night light cycle, subirrigation with water 2 times/day, 20 minutes soaking each time. Four weeks after inoculation, the plants were scored for disease severity on a scale of 0-100% (Horsfall et al., 1945). To develop a disease progress curve over time, plants were rated once a week for at least 8 weeks.
Twenty-one independent transgenic potato lines expressing AlfAFP1 were tested for resistance to Verticillium wilt disease. […]
Table 2 summarizes the qualitative protein expression data for each of the lines, and the disease severity rating of each individual line in the Verticillium wilt disease test determined at 46 days post inoculation. […]

The mark [3] stands for this setting: high salt medium (1 mM CaCl2 and 50 mM KCl added).

With “AlfAFP1: antifungal polypeptide of 45 amino acids isolated from alfalfa (Medicago) seed, SEQ ID NO:2, about 5,186 daltons (RTCENLADKYRGPCFSGCDTHCTTKENAVSGRCRDDFRCWCTKRC; Alfalfa)”, the “IC50 (concentration required to cause 50% inhibition of fungal hyphal growth), High salt” value with Fusarium culmorum (setting [3]) and in the assay with Verticillium dahliae [1] (setting [3]) was 15 µg/mL in each case. For the same substance, the “IC50 (concentration required to cause 50% inhibition of fungal hyphal growth), Low salt” value in the assay with Fusarium culmorum (low salt medium) worked out at 1 µg/mL; with Verticillium dahliae [1] (low salt medium) it was 4 µg/mL. Besides, the “Lines with disease severity rated equal to or less than 30%” value in the assay with Verticillium dahliae [2] (AlfAFP1 expressing potato lines, 46 days post inoculation, controls 1 out of 21 and 1 out of 18) was “Thirteen out of 21”. In addition, the “Average Disease Severity (%) (46 Days Post Inoc.)” value with Verticillium dahliae [2] (average of 21 AlfAFP1 positive potato lines, non-expressors 62.7, vector control 62.2) is 29.6%. Further, the “Disease severity less than that of the non-expressors or the vector controls” value with Verticillium dahliae [2] (average of 21 expressor lines versus 21 non-expressor lines or 18 vector control lines, 46 days post inoculation) amounted to 52%.
